From US20190038542A1, “MOISTURIZING PERSONAL CARE COMPOSITIONS COMPRISING MONODISPERSE PHYTOGLYCOGEN NANOPARTICLES AND A FURTHER POLYSACCHARIDE” (MIREXUS BIOTECHNOLOGIES INC., priority 2016, published 2019)

Test: Photostability of phytoglycogen-ethyl-4-aminocinnamate conjugate versus aminocinnamate
Format: physicochemical
Conditions: after 4 h of exposure to UV-irradiation, thin film
Procedure: Aminocinnamate and a phytoglycogen-ethyl-4-aminocinnamate conjugate were dissolved in ethanol or in water, respectively.
Solutions were deposited as thin films onto a quartz plate and dried in air for 30 min. After drying, the samples were irradiated with UV light, as in Example 11, for 4 h and then tested for their photostability.
Photodegradation was calculated from the decrease in the maximum absorption of the respective products.

- activity retained: 40%
SMILES: CCOC(=O)C=Cc1ccc(N)cc1 [aminocinnamate, ethyl 4-aminocinnamate]
